From patent US6201006A, “Aromatic amidine derivatives useful as selective thrombin inhibitors” (C & C Research Laboratories, priority 1996, dated 2001) come the findings set out here.

The test system of one assay is trypsin. The assay is described as follows: Inhibitory activity for trypsin. In kind it is biochemical.
The next assay has as its target T1, human thrombin (Homo sapiens, UniProt P00734).
T1 construct: purchased Sigma T-6759
The assay is described as follows: Inhibitory activity for thrombin (chromogenic substrate hydrolysis, 405 nm). In kind it is biochemical. The settings on record: for Selectivity (trypsin/thrombin): IC50 for trypsin divided by IC50 for thrombin; for IC50: human thrombin, 20 min, pH 8.0, N-benzoyl-Phe-Val-Arg-p-nitroanilide. As for the experimental part:
20 μl of each compound of the present invention was dissolved in 50% methanol in various concentrations and then added to each well of a microplate, to each of which 160 μl of the reaction medium containing 125 mM NaCl, 50 mM Tris-HCl (pH 8.0) and 2 mM synthetic substrate (N-benzoyl-Phe-Val-Arg-p-nitroanilide, Sigma B-7632) were added. 20 μl of human thrombin solution (5 units/ml, Sigma T-6759, manufactured by Sigma Co.) containing 0.1% bovine serum albumin was added to each well to initiate the enzymatic reaction. After 20 minutes, the hydrolysis of substrate was determined by measuring the absorbance at 405 nm. […] The selectivity index was calculated by dividing the IC50 value for trypsin by the IC50 value for thrombin. The thrombin inhibitory activity and the trypsin inhibitory activity for the compound of the present invention are shown in the following Table 2.

The test system of assay [1] is thrombin time (TT) in rat plasma. Put plainly: Thrombin time (TT) in rat plasma after oral administration. The settings on record: TT after / TT before administration. In kind it is in vivo, SD male rats. The procedure: SD male rats weighing 220±20 g which had fasted overnight were used as experimental animals. Blood taken from the hearts of the experimental animals just before administration of the test compound and at 30, 60, 120 and 240 minutes after oral administration of the test compound was mixed with 0.108M sodium citrate in the ratio of 9:1. The mixtures thereby obtained were centrifuged at 15,000 rpm for 5 minutes at 4° C. to separate the plasma, which was stored at -20° C. until the TT was measured by means of the method described below.
200 μl of Owren's buffer was added to 50 μl of the plasma and 100 μl of the diluted plasma thereby obtained was injected into the vial of a coagulometer and then incubated for 2 minutes at 37° C. To each vial was added 100 μl of thrombin at a concentration of 20 U/ml, which had prewarmed at 37° C., to measure the time (TT) until clotting occurred. The ratio of the TT in rat plasma after administration of the test compound to the TT in rat plasma before administration of the test compound was calculated.

Consider `CCOC(=O)CN[C@@H](C(=O)N1CCC[C@H]1CCc1cc2ccc(C(=N)N)cc2n1CC)c1ccccc1` [Compound 38, ethyl 2-[[(R)-2-[2-[(S)-2-[2-(6-amidino-1ethylindol-2-yl)ethyl]pyrrolidinyl]-2-oxo1-phenyl]ethyl]amino]acetate], for which, in the assay with trypsin, half-maximal inhibition (IC50) required 184 nM. On human thrombin, the “Selectivity (trypsin/thrombin)” value is on record as 24.2 and the IC50 is 7.59 nM.
Turning to `CCOC(=O)C(C(=O)N1CCC[C@H]1CCc1cc2ccc(C(=N)N)cc2n1CC)C1CCCC1` (stereo partly drawn) [Compound 44, ethyl 3-[(S)-2-[2-(6-aminido-1-ethylindol-2-yl)ethyl]pyrrolidinyl]-2-cyclopentyl-3-oxopropanoate], in the assay with trypsin, the IC50 came out at 313 nM. On human thrombin, the “Selectivity (trypsin/thrombin)” value was 33.9 and the half-inhibitory concentration (IC50) was 9.23 nM.
For `CC(=O)N1CCC[C@@H]1C(=O)N1CCC[C@H]1CCc1cc2ccc(C(=N)N)cc2n1C` [Compound 170, 1-methyl-2-[2-[(S)-1-[((R)-1-acetylpyrrolidin-2-yl)-carbonyl]pyrrolidin-2-yl]ethyl]indole-6-carboxamidine], in that order: 1070 nM, 31.9 and 33.5 nM.
For the compound `CCOC(=O)CN1CCC[C@@H]1C(=O)N1CCC[C@H]1CCc1cc2ccc(C(=N)NC(=O)OCC)cc2n1CC` [Compound 267, ethyl 2-[(R)-2-[[(S)-2-[2-[1-ethyl-6-[(ethoxycarbonylamino)iminomethyl]indol-2-yl]ethyl]pyrrolidinyl]carbonyl]pyrrolidinyl]acetate], the “Plasma TT ratio after administration to rat” value (“Plasma TT ratio” for short) in assay [1] (50 mg/kg oral) was 4.48.
In the case of `CCOC(=O)CN1CCC[C@@H]1C(=O)N1CCC[C@H]1CCc1cc2ccc(C(=N)NC(=O)OC(C)C)cc2n1CC` [Compound 270, ethyl 2-[(R)-2-[[(S)-2-[2-[1-ethyl-6-[imino[(methylethoxy)carbonylamino]methyl]indol-2-yl]ethyl]pyrrolidinyl]carbonyl]pyrrolidinyl]acetate], the “Plasma TT ratio” value in assay [1] (30 mg/kg oral) came to 1.46; in assay [1] (50 mg/kg oral), 4.30.
In the assay on trypsin, `CCn1c(CC[C@@H]2CCCN2C(=O)CN(C2CC2)S(C)(=O)=O)cc2ccc(C(=N)N)cc21` [Compound 58, 1-ethyl-2-[2-[(S)-1-[2-[cyclopropyl(methylsulfonyl)amino]acetyl]pyrrolidin-2-yl]ethyl]indole-6-carboxamidine] gave an IC50 of 52.2 nM. In addition, on human thrombin, the “Selectivity (trypsin/thrombin)” value is reported as 17.4 and the midpoint of inhibition, the IC50, lay at 3 nM.
Compound `CCn1c(CC[C@@H]2CCCN2C(=O)[C@H]2CCCN2C(=O)CCC(=O)O)cc2ccc(C(=N)N)cc21` [Compound 177] displayed an IC50 with trypsin of 500 nM. For the same compound, on human thrombin, the “Selectivity (trypsin/thrombin)” value is 26.6 and it took 18.8 nM to reach half-maximal inhibition (IC50).
On the same counts, the results for `C=CC(=O)N1CCC[C@@H]1C(=O)N1CCC[C@H]1CCc1cc2ccc(C(=N)N)cc2n1CC` [Compound 182, 1-ethyl-2-[2-[(S)-1-[((R)-1-prop-2-enoyl-pyrrolidin-2-yl)carbonyl]pyrrolidin-2-yl]ethyl]indole-6-carboxamidine] are 304 nM, 30.0 and 10.1 nM.
For `CCn1c(CC[C@@H]2CCCN2C(=O)C(c2ccccc2)C2CCCC2)cc2ccc(C(=N)N)cc21` (stereo partly drawn) [Compound 30, 1-ethyl-2-[2-[(S)-1-(2-cyclopentyl-2-phenylacetyl)pyrrolidin-2-yl]ethyl]indole-6-carboxamidine], in that order: 420 nM, 46.6 and 9.01 nM.
On to `CCn1c(CC[C@@H]2CCCN2C(=O)Cc2cccc(Cl)c2)cc2ccc(C(=N)N)cc21` [Compound 15], for which the half-inhibitory concentration (IC50) worked out at 608 nM with trypsin and 20.1 nM on human thrombin. Further, on human thrombin, the “Selectivity (trypsin/thrombin)” value is on record as 30.2.
Turning to `CCn1c(CC[C@@H]2CCCN2C(=O)[C@H]2CCCN2S(C)(=O)=O)cc2ccc(C(=N)N)cc21` [Compound 184, 1-ethyl-2-[2-[(S)-1-[[(R)-1-(methanesulfonyl)pyrrolidin-2-yl]carbonyl]pyrrolidin-2-yl]ethyl]indole-6-carboxamidine], 551 nM corresponded to half-maximal inhibition in the assay with trypsin (IC50). On human thrombin, the “Selectivity (trypsin/thrombin)” value is reported as 57.9 and the midpoint of inhibition, the IC50, lay at 9.51 nM.
On to `CCn1c(CC[C@@H]2CCCN2C(=O)[C@H]2CCCN2C(CCO)C(N)=O)cc2ccc(C(=N)N)cc21` (stereo partly drawn) [Compound 117, 1-ethyl-2-[2-[(S)-1-[[(R)-1-(1-carbamoyl-3-hydroxypropyl)pyrrolidin-2-yl]carbonyl]pyrrolidin-2-yl]-ethyl]indole-6-carboxamidine], for which the IC50 in the assay on trypsin was determined as 811 nM; against human thrombin, 16.7 nM. For the same compound, at human thrombin, the “Selectivity (trypsin/thrombin)” value is reported as 48.6.
As to `CCn1c(CCC2CCCN2C(=O)C2CCCN2C(=O)CC(NS(C)(=O)=O)C(N)=O)cc2ccc(C(=N)N)cc21` [Compound 162, 1-ethyl-2-[2-[(S)-1-[[1-[(R)-1-[3-carbamoyl-(S)-3-[(methanesulfonyl)amino]propanoyl]pyrrolidin-2-yl]carbonyl]pyrrolidin-2-yl]ethyl]indole-6-carboxamidine], the IC50 in the assay on trypsin came to 329 nM; at human thrombin, 7.3 nM. The “Selectivity (trypsin/thrombin)” value on human thrombin worked out at 45.0.
Turning to `CCn1c(CC[C@@H]2CCCN2C(=O)[C@H]2CCCN2CC(N)=O)cc2ccc(C(=N)N)cc21` [Compound 114, 1-ethyl-2-[2-[(S)-1-[[(R)-1-(carbamo-ylmethyl)pyrrolidin-2-yl]carbonyl]pyrrolidin-2-yl]ethyl]indole-6-carboxamidine], in the assay on trypsin, it took 500 nM to reach half-maximal inhibition (IC50). Besides, on human thrombin, the “Selectivity (trypsin/thrombin)” value is listed as 28.8 and the IC50 was 17.4 nM.
Turning to `CCn1c(CC[C@@H]2CCCN2C(=O)[C@H]2CCCN2C(=O)[C@H](C)NS(C)(=O)=O)cc2ccc(C(=N)N)cc21` [Compound 146, 1-ethyl-2-[2-[(S)-1-[[(R)-1-[(S)-2-(methanesulfonylamino)propanoyl]pyrrolidin-2-yl]carbonyl]pyrrolidin-2-yl]-ethyl]indole-6-carboxamidine], the IC50 in the assay on trypsin is 464 nM; at human thrombin, 22.1 nM. The “Selectivity (trypsin/thrombin)” value at human thrombin was found to be 21.0.
Compound `CCn1c(CC[C@@H]2CCCN2C(=O)[C@H]2CCCN2C(=O)[C@H](C)N)cc2ccc(C(=N)N)cc21` [Compound 143, 1-ethyl-2-[2-[(S)-1-[[(R)-1-((S)-2-aminopropanoyl)pyrrolidin-2-yl]carbonyl]pyrrolidin-2-yl]ethyl]indole-6-carboxamidine] registered an IC50 in the assay on trypsin of 410 nM. Moreover, on human thrombin, the “Selectivity (trypsin/thrombin)” value came to 75.2 and the IC50 is 5.46 nM.
In the assay with trypsin, `CCn1c(CC[C@@H]2CCCN2C(=O)[C@H]2CCCN2C(=O)C2CCCCN2)cc2ccc(C(=N)N)cc21` (stereo partly drawn) [Compound 167, 1-ethyl-2-[2-[(S)-1-[[(R)-1-[(2-piperidyl)carbonyl]pyrrolidin-2-yl]carbonyl]pyrrolidin-2-yl]ethyl]indole-6-carboxamidine] registered a half-maximal inhibitory concentration (IC50) of 322 nM. At human thrombin, the “Selectivity (trypsin/thrombin)” value is listed as 17.6 and it took 18.3 nM to reach half-maximal inhibition (IC50).
Consider `CCn1c(CC[C@@H]2CCCN2C(=O)[C@H]2CCCN2C(=O)CC(C)O)cc2ccc(C(=N)N)cc21` (stereo partly drawn) [Compound 180, 1-ethyl-2-[2-[(S)-1-[[(R)-1-(3-hydroxybutanoyl)pyrrolidin-2-yl]carbonyl]pyrrolidin-2-yl]-ethyl]indole-6-carboxamidine], for which the concentration for half-maximal inhibition (IC50) with trypsin worked out at 351 nM. Further, on human thrombin, the “Selectivity (trypsin/thrombin)” value turned out to be 31.8 and half-maximal inhibition (IC50) required 11 nM.
`CCOC(=O)CN1CCCC1C(=O)N1CCCC1CCc1cc2ccc(C(=N)NC(=O)OC(Cl)(Cl)Cl)cc2n1CC` [Compound 272, ethyl 2-[(R)-2-[[(S)-2-[2-[6-[[(trichloromethoxy)carbonylamino]iminomethyl]-1-ethylindol-2-yl]ethyl]pyrrolidinyl]carbonyl]pyrrolidinyl]acetate]: the “Plasma TT ratio” value in assay [1] (30 mg/kg oral) came to 1.76; in assay [1] (50 mg/kg oral), 2.84.
With `CCn1c(CC[C@@H]2CCCN2Cc2c(C(N)=O)sc3ccccc23)cc2ccc(C(=N)N)cc21` [Compound 8], half-maximal inhibition in the assay with trypsin (IC50) was put at 460 nM. For the same compound, at human thrombin, the “Selectivity (trypsin/thrombin)” value is 48.6 and it took 9.47 nM to reach half-maximal inhibition (IC50).
On to `CCn1c(CC[C@@H]2CCCN2C(=O)[C@H]2CCCN2C(=O)CCCN)cc2ccc(C(=N)N)cc21` [Compound 166, 1-ethyl-2-[2-[(S)-1-[[(R)-1-(4-aminobutanoyl)pyrrolidin-2-yl]carbonyl]pyrrolidin-2-yl]ethyl]indole-6-carboxamidine], for which half-maximal inhibition with trypsin (IC50) required 617 nM. Moreover, at human thrombin, the “Selectivity (trypsin/thrombin)” value was 18.6 and the IC50 was 33.1 nM.

Usually IC50 stands for the concentration that inhibits the measured activity by half. A high value points to weaker potency.
